Where two headings read alike, the source gives them in different places.

The record followed here is patent US7501431B2, “Physiologically active substances PF1270A, B and C substances” (Meui Seika Kaisha, Ltd., priority 2003, dated 2009).

In one data set the target is T1, histamine H3 receptor (Rattus norvegicus, UniProt Q9QYN8).
T1 construct: Rat fore-brain was homogenized in 10 volumes of 0.32 M sucrose solution; from tissue; host or cells: rat fore-brain membrane fraction
Put plainly: N^α-methylhistamine binding inhibition test ([3H]N^α-methylhistamine, rat fore-brain membrane fraction). From the text: The PF1270A, B and C substances obtained by the invention have affinity for histamine H3 receptor. Affinity of the PF1270A, B and C substances for histamine H3 receptor was examined by a binding inhibition test of a histamine H3 receptor ligand, N^α-methylhistamine.
Test Example N^α-methylhistamine Binding Inhibition Activity
Rat fore-brain was homogenized in 10 volumes of 0.32 M sucrose solution using a Teflon-glass homogenizer, and the thus obtained homogenate was centrifuged at 1000×g for 10 minutes. The supernatant was centrifuged at 39000×g for 20 minutes to obtain the precipitate. This precipitate was washed with an assay buffer (50 mM Tris (pH 7.4), 5 mM EDTA) by centrifugation. This operation was further carried out twice, and the finally obtained membrane fraction was used as the histamine H3 receptor membrane fraction.
The binding inhibition test was carried out using the thus obtained membrane fraction and a radioactive ligand [^3H]N^α-methylhistamine (manufactured by Perkin-Elmer Life Science). In the presence of PF1270A, B or C substance, the membrane fraction (55 μg as protein) and 1 nM in final concentration of [^3H]N^α-methylhistamine were added to 150 μl of the assay buffer and incubated at room temperature for 60 minutes. This was filtered using a unifilter GF/B filter (manufactured by Perkin-Elmer) coated with 0.3% polyethyleneimine and washed three times with 200 μl of the assay buffer. After drying at 50° C. for 1 hour, 30 μl of Microscinti-20 (manufactured by Perkin-Elmer) was added thereto as the scintillator, and the radioactivity was counted using Top Count (manufactured by Perkin-Elmer). The nonspecific binding was determined by adding a large excess of thioperamide (10 μM in final concentration). The binding inhibition ratio of N^α-methylhistamine in the presence of PF1270A, B or C substance was calculated based on the following formula. […]

The nature of data set [1]: Solubility (physicochemical properties).
[2] abbreviates: rat fore-brain histamine H3 receptor membrane fraction, 1 nM [3H]N^α-methylhistamine, room temperature 60 minutes, read-out: N^α-methylhistamine binding inhibition activity, IC50 (converted).

T1 sequence (Q9QYN8 whole entry): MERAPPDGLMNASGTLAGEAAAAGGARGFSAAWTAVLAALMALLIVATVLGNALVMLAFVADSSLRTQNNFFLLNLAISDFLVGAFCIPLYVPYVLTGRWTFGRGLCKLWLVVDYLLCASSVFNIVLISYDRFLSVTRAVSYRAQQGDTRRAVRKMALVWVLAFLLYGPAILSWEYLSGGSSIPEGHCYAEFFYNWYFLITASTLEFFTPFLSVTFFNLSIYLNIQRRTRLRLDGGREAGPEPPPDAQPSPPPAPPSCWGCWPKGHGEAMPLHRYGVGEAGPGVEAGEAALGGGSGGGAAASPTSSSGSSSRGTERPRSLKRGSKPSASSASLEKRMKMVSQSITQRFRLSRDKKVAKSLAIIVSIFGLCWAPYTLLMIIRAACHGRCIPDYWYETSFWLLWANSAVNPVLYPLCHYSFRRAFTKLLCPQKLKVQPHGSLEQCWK

In the case of `CCCC(=O)OC1CC(C)N2CC3(NC)CC4(C(=O)Nc5c(C(=O)C6OC6(C)C)cccc54)C(C)(C=O)C3CC2C1` (stereo not drawn) [PF1270A], the IC50 (usually the point on the concentration scale where inhibition reaches its midpoint) at histamine H3 receptor was 83.1 nM. In data set [1], the “Solubility in chloroform and methanol” value is given as “soluble”; the Solubility in water entry is reported as “hardly soluble”.
Take `CCC(=O)OC1CC(C)N2CC3(NC)CC4(C(=O)Nc5c(C(=O)C6OC6(C)C)cccc54)C(C)(C=O)C3CC2C1` (stereo not drawn) [PF1270B]: on histamine H3 receptor (setting [2]), the IC50 is 399 nM. Besides, in data set [1], the “Solubility in chloroform and methanol” value is reported as “soluble”; the Solubility in water entry is on record as “hardly soluble”.
For the compound `CNC12CN3C(C)CC(OC(C)=O)CC3CC1C(C)(C=O)C1(C2)C(=O)Nc2c(C(=O)C3OC3(C)C)cccc21` (stereo not drawn) [PF1270C], the IC50 at histamine H3 receptor (setting [2]) is 763 nM. Besides, in data set [1], the “Solubility in chloroform and methanol” value is “soluble”; the Solubility in water result is “hardly soluble”.
